System: SMN2-luciferase reporter
Test: SMN2-luciferase reporter qHTS assay
Format: cell-based, human
Design: key to Curve Class: A curve class of 1.1 is a full agonist/antagonist; a curve class of 4 indicates the compound is inactive
Conditions: for Curve Class: agonist/antagonist character of the concentration-response, lower values = more significant concentration-response; for Increased SMN2 activity: percent increase (or decrease) in SMN2 levels compared to control in which no test compound is added
From the text: A cell-based quantitative high throughput screening (qHTS) assay is used to identify compounds able to increase SMN production. The assay uses a SMN2-luciferase reporter to determine if exon 7 of the SMN gene is expressed, which correlates with increased full-length SMN production from the SMN2 gene. As controls, a homologue SMN1-luciferase reporter cell line looks for variations in expression of the SMN1 gene and a cell line with just the luciferase reporter looks at the capacity of the compounds to inhibit luciferase. In addition, increments in SMN production by lead compounds were confirmed by Western-Blot analysis using SMA patient fibroblasts.
For the qHTS assay, concentration-response profiles are generated at the primary-screen level for each library compound to minimize the number of false positives. A dilution series consisting of seven points separated by five-fold concentration differences is prepared for each compound, yielding a concentration series that spans a range of about four orders of magnitude, for example from a high concentration of 50 micromolar to a low concentration of 3.2 nanomolar and providing adequate data for fitting to a Hill equation. For the assay, the SMN2 reporter cell line was plated at a density of ˜2000 cells/well in complete media (phenol red free DMEM, 10% detacl calf serum, and 1× pen/strep), in 1536 well white solid bottom tissue culture treated plates (Greiner). Cells were allowed to adhere and recover at 37 C in 5% CO2 for 10-12 hours. Compounds were added to the plates by a Pintool (Kalypsys) at a volume of 23 nl/well. Cells were incubated in the presence of compounds for 2 days at 37 C in 5% CO2. In order to quantify luciferase reporter levels, 3 ul/well of OneGlo (Promega) was added to each well and incubated at room temperature for 10 minutes. Luminescence from the reporter in each well is measured using a Viewlux CCD based imager (Perkin Elmer) with an integration time of 30 seconds and a binning of 2× in luminescence mode. Sodium butyrate was used as the positive control compound for luciferase induction and a column of 32 wells of 9.2 mM compound on each plate was used to monitor assay performance.
The SMN reporters used herein are modified from those previously described (M. L. Zhang, C. L. Lorson, E. J. Androphy and J. Zhou, An in vivo reporter system for measuring increased inclusion of exon 7 in SMN2 mRNA: potential therapy of SMA, Gene Ther 8 (2001), pp. 1532-1538.)
The sequence of the SMN1 reporter vector used herein is given in SEQ ID NO.:1, while that of the SMN2 reporter vector is given in SEQ ID NO.:2.
Each of the SMN reporters is constructed from three separate DNA fragments: (1) an SMN promotor sequence from the transcriptional reporter p 4.0T (SMN1) or p3.4C (SMN2) described in Monani, et al. Biochimica et Biophysica Acta 1445 (1999) 330-336; (2) a modification of the firefly luciferase splicing reporter for SMN1 or SMN2 described by Zhang et al; and (3) a 744 bp SMN cDNA fragment.
The 3.7 kB SMN1 promoter fragment is obtained by restriction of p4.0T with BglII and SacII. A 3.4 kB SMN2 promoter fragment is obtained by restriction of p3.4C with KpnI and SacII; a 300 bp BglII/KpnI fragment from p4.0T is then added to the 3.4 kB SMN2 promoter fragment to yield the final 3.7 kB SMN2 promoter fragment.
The modified SMN1 and SMN2 firefly luciferase splicing reporters are obtained by removing 4 kB of intron 6 in the original reporter system by restriction with SmaI/Swa followed by religation of the reporter. A 4 kB luciferase splicing reporter is then obtaind by digestion with XhoI and NotI.
Ths SMN cDNA fragment is obtained by generating the productof a polymerase chain reaction (PCR) on a cDNA preparation using […] (SEQ ID NO:3) as the forward primer and Tatctcgagtggtccagaaggaaatggaggcagcc (SEQ ID NO:4) as the reverse primer. The PCR product is then digested with XhoI and SacII. […]

Row | SMILES | Curve Class | Increased SMN2 activity [%]
1 | N#Cc1ccc(-c2csc(N3CCC(C(N)=O)CC3)n2)cc1 [Example 18, 1-(4-(4-Cyanophenyl)Thiazol-2-yl)Piperidine-4-Carboxamide] | 2.2 | 48.75
2 | NC(=O)C1CCN(c2nc(-c3ccc(F)cc3)cs2)CC1 [Example 19, 1-(4-(4-Fluorophenyl)Thiazol-2-yl)Piperidine-4-Carboxamide] | 1.1 | 287.7
3 | NC(=O)C1CCN(c2nc(-c3ccc(Cl)cc3)cs2)CC1 [Example 20, 1-(4-(4-Chlorophenyl)Thiazol-2-yl)Piperidine-4-Carboxamide] | 1.1 | 380.6
4 | Cc1ccc(-c2csc(N3CCC(C(N)=O)CC3)n2)cc1 [Example 21, 1-(4-(4-Methylphenyl)Thiazol-2-yl)Piperidine-4-Carboxamide] | 1.1 | 439.1
5 | NC(=O)C1CCN(c2nc(-c3ccc(C(F)(F)F)cc3)cs2)CC1 [Example 22, 1-(4-(4-Trifluoromethylphenyl)Thiazol-2-yl)Piperidine-4-Carboxamide] | 1.1 | 386.1
6 | COc1ccc(-c2csc(N3CCC(C(N)=O)CC3)n2)cc1 [Example 25, 1-(4-(4-Methoxyphenyl)Thiazol-2-yl)Piperidine-4-Carboxamide] | 2.1 | 209.1
7 | NC(=O)C1CCN(c2nc(-c3cccc(Br)c3)cs2)CC1 [Example 26, 1-(4-(3-Bromophenyl)Thiazol-2-yl)Piperidine-4-Carboxamide] | 2.2 | 57.55
8 | NC(=O)C1CCN(c2nc(-c3ccc(-c4ccccc4)cc3)cs2)CC1 [Example 28, 1-(4-(Biphenyl-4-yl)Thiazol-2-yl)Piperidine-4-Carboxamide] | 2.2 | 58.07
9 | NC(=O)C1CCN(c2nc(-c3ccc([N+](=O)[O-])cc3)cs2)CC1 [Example 29, 1-(4-(4-Nitrophenyl)Thiazol-2-yl)Piperidine-4-Carboxamide] | 2.1 | 254.3
10 | NC(=O)C1CCN(c2nc(-c3ccccc3)cs2)CC1 [Example 30, 1-(4-Phenylthiazol-2-yl)Piperidine-4-Carboxamide] | 1.1 | 166.6
11 | Brc1ccc(-c2csc(N3CCCCC3)n2)cc1 [Example 32, 4-(4-Bromophenyl)-2-(Piperidin-1-yl)Thiazole] | 2.1 | 272.6
12 | NC(=O)C1CCN(c2nc(-c3cccc(F)c3)cs2)CC1 [Example 33, 1-(4-(3-Fluorophenyl)Thiazol-2-yl)Piperidine-4-Carboxamide] | 2.2 | 64
13 | NC(=O)C1CCN(c2nc(-c3cccc(Cl)c3)cs2)CC1 [Example 34, 1-(4-(3-Chlorophenyl)Thiazol-2-yl)Piperidine-4-Carboxamide] | 2.2 | 53.23
14 | COc1cccc(-c2csc(N3CCC(C(N)=O)CC3)n2)c1 [Example 35, 1-(4-(3-Methoxyphenyl)Thiazol-2-yl)Piperidine-4-Carboxamide] | 1.1 | 357
15 | NC(=O)C1CCN(c2nc(-c3cccc([N+](=O)[O-])c3)cs2)CC1 [Example 37, 1-(4-(3-Nitrophenyl)Thiazol-2-yl)Piperidine-4-Carboxamide] | 2.4 | 20.29
16 | NC(=O)C1CCN(c2nc(-c3ccccc3F)cs2)CC1 [Example 38, 1-(4-(2-Fluorophenyl)Thiazol-2-yl)Piperidine-4-Carboxamide] | 1.1 | 274.6

Row | SMILES | Curve Class | Increased SMN2 activity [%]
17 | NC(=O)C1CCN(c2nc(-c3ccccc3Cl)cs2)CC1 [Example 39, 1-(4-(2-Chlorophenyl)Thiazol-2-yl)Piperidine-4-Carboxamide] | 2.2 | 57.61
18 | CCOC(=O)C1CCN(c2nc(-c3ccc(Br)cc3)cs2)CC1 [Example 44, Ethyl 1-(4-(4-Bromophenyl)Thiazol-2-yl)Piperidine-4-Carboxylate] | 1.1 | 550.3
19 | CC(=O)c1ccc(-c2csc(N3CCC(C(N)=O)CC3)n2)cc1 [Example 45, 1-(4-(4-Acetylphenyl)Thiazol-2-yl)Piperidine-4-Carboxamide] | 2.1 | 130.4
20 | Cc1cccc(-c2csc(N3CCC(C(N)=O)CC3)n2)c1 [Example 46, 1-(4-M-Tolylthiazol-2-yl)Piperidine-4-Carboxamide] | 2.1 | 187.4
21 | NC(=O)C1CCN(c2nc(-c3ccc4c(c3)OCO4)cs2)CC1 [Example 47, 1-(4-(Benzo[D][1,3]Dioxol-5-yl)Thiazol-2-yl)Piperidine-4-Carboxamide] | 1.1 | 359.16
22 | NC(=O)C1CCN(c2nc(-c3ccc4occc(=O)c4c3)cs2)CC1 [Example 50, 1-(4-(4-Oxo-4H-Chromen-6-yl)Thiazol-2-yl)Piperidine-4-Carboxamide] | 2.1 | 589.68
23 | NC(=O)C1CCN(c2nc(-c3cccs3)cs2)CC1 [Example 51, 1-(4-(Thiophen-2-yl)Thiazol-2-yl)Piperidine-4-Carboxamide] | 2.2 | 50.93
24 | NC(=O)C1CCN(c2nc(-c3ccccc3N)cs2)CC1 [Example 53, 1-(4-(2-Aminophenyl)Thiazol-2-yl)Piperidine-4-Carboxamide] | 3 | 79.57
25 | CC(=O)c1cccc(-c2csc(N3CCC(C(N)=O)CC3)n2)c1 [Example 55, 1-(4-(3-Acetylphenyl)Thiazol-2-yl)Piperidine-4-Carboxamide] | 1.1 | 356
26 | NC(=O)C1CCN(c2nc(-c3ccc4ccccc4c3)cs2)CC1 [Example 56, 1-(4-(Naphthalen-2-yl)Thiazol-2-yl)Piperidine-4-Carboxamide] | 1.1 | 162
27 | NC(=O)C1CCN(c2nc(-c3ccc(N4CCCCC4)nc3)cs2)CC1 [Example 60, 1-(4-(6-(Piperidin-1-yl)Pyridin-3-yl)Thiazol-2-yl)Piperidine-4-Carboxamide] | 2.1 | 100
28 | CN(C)C(=O)c1cccc(-c2csc(N3CCC(C(N)=O)CC3)n2)c1 [Example 62, 1-(4-(3-(Dimethylcarbamoyl)Phenyl)Thiazol-2-yl)Piperidine-4-Carboxamide] | 2.2 | 51.18
29 | NC(=O)C1CCN(c2nc(-c3cccc4sc5ccccc5c34)cs2)CC1 [Example 64, 1-(4-(Dibenzo[b,d]Thiophen-1-yl)Thiazol-2-yl)Piperidine-4-Carboxamide] | 2.1 | 369
30 | Cn1ccc2cc(-c3csc(N4CCC(C(N)=O)CC4)n3)ccc21 [Example 65, 1-(4-(1-Methyl-1H-Indol-5-yl)Thiazol-2-yl)Piperidine-4-Carboxamide] | 1.1 | 534
31 | NC(=O)C1CCN(c2nc(-c3cc4ccccc4o3)cs2)CC1 [Example 68, 1-(4-(Benzofuran-2-yl)Thiazol-2-yl)Piperidine-4-Carboxamide] | 2.1 | 100
